The source of these data is patent EP0782989A1, “INDOLE DERIVATIVES” (KYOWA HAKKO KOGYO CO., LTD., priority 1995, dated 1997).

The subject of one experiment is PTH enhanced bone. The experiment is described as follows: Inhibitory effect on bone absorption (calcium liberation from PTH enhanced cultured calvaria). It is filed as cell-based, newborn dd mouse. Conditions: Mus musculus; calvaria culture with PTH 1 x 10^-8M, 96 hours, total calcium in the culture; test compound 3 x 10^-6M, 1 x 10^-5M, 3 x 10^-5M. The method, then: Test Example 1: Inhibitory effect on bone absorption The calvaria was excised from a newborn dd mouse (5 to 6 days old) under sterile conditions. The calvaria was washed with a modified Dulbecco phosphate buffer physiological saline solution containing neither calcium nor magnesium (a product of Gibco Oriental), and divided into two parts along the center suture. A half of the calvaria was cultivated in a modified Dulbecco Eagle medium (1.5 ml) (a product of Gibco Oriental) containing 2.5% fetal calf serum and 15% equine serum which had been inactivated by heating at 56°C for 20 minutes. The test compound was dissolved in dimethyl sulfoxide and 10 μl of the resulting solution was added to the culture medium to give the final concentrations of 3 x 10^-6M, 1 x 10^-5M, and 3 x 10^-5M. PTH (parathyroid hormone) was dissolved in a 0.15 M saline solution (pH 3) and 3 μl of the resulting solution was added to the culture medium to give the final concentration of 1 x 10^-8M. The culturing was carried out under the condition of 95% air and 5% carbon dioxide and at a temperature of 37°C for 96 hours. At 48 hours after the start of the culturing, the culture medium was renewed and the test compound and PTH treated as defined above were added thereto. For examining the effect of the test compound on calcium liberation (bone absorption) from the PTH enhanced bone, a control group, a group using PTH (1 x 10^-8M), and a group using both the test compound (3 […]) and PTH were prepared. The amount of the bone absorption was determined by measuring the amount of calcium accumulated in the culture as collected after 96 hours of culturing. The total calcium concentration in the culture was measured with Calcium C Test Wako. The inhibition rate was calculated using the following equation and the result was shown in terms of 50% inhibitory concentration (IC50). Inhibition of bone absorption from PTH enhanced bone Inhibition rate (%) = [(CP - CD )/(CP - C0 )] x 100 [formula] • C0 : The total calcium concentration in the culture containing neither the test compound nor PTH. • CP : The total calcium concentration in the culture treated with only PTH. • CD : The total calcium concentration in the culture treated with both the test compound and PTH.

Experiment [1] has as its system ovariectomized rats. Briefly: Inhibitory effect on the increase of urinary hydroxyproline excretion by ovariectomy. It is filed as in vivo, SD strain rats. The conditions noted are these: Rattus norvegicus, po, 336 h; 10 mg/kg orally once a day for two weeks after ovariectomy; hydroxyproline/creatinine molar ratio in 24 hours urine; read-out: Inhibition rate of increase of the amount of urinary hydroxyproline excretion.
Experimental: The inhibitory effect of the compounds of the present application on bone resorption was also determined by their inhibitory effect on the excretion of urinary hydroxyproline which is elevated by ovariectomy of the animals tested, according to the report of Kalu et al. [Bone and Mineral., 14, 175 (1991)].
Test Example 2: Inhibitory effect on the increase of urinary hydroxyproline excretion by ovariectomy
12-weeks-old female SD strain rats (Japan Clea Co., Ltd.) were acclimated for 1 week during which they were given tap water and a standard diet (F2; Funabashi Farmas) ad libitum. The experiment was carried out using the rats weighing 270-310 g. After the animals were subjected to sham operation or bilateral ovariectomy, they were allowed free access to water passed through ion exchange resin instead of tap water, and were housed in individual cages. The test compound (10 mg/kg) was suspended in 0.3% Tween or 0.5% methylcellulose, and the obtained suspension was orally administered to the ovariectomized rats once a day for two weeks starting from the day following ovariectomy (0.5 ml/100 g body weight). 0.3% Tween or 0.5% methylcellulose was similarly administered to sham-operated rats and ovariectomized control rats. After the final administration, the rats were placed in individual metabolic cages and fasted during 24 hours, and urine was collected. The volume of the collected urine was measured and the urine was centrifuged at 3,000 rpm for 15 min at 4°C. The concentration of hydroxyproline in the supernatant was measured by the method of Ikeda et al. [Ann. […] P. H., 36, 277-282 (1985)] and the concentration of creatinine in the supernatant was measured with creatinine test WAKO (Wako Pure Chem.) The amount of urinary hydroxyproline excretion was expressed by the molar ratio of the amount of hydroxyproline to the amount of creatinine. The rate of inhibition on increase of the amount of urinary hydroxyproline excretion in ovariectomized rats treated with the test compound compared to that of the control group was calculated using the following equation. Inhibition rate (%) = [(P1 - P2)/(P1 - P3)] x 100 [formula] • P1 : The amount of urinary hydroxyproline excretion in ovariectomized rats treated with 0.3% Tween (µmol/mmol). • P2 : The amount of urinary hydroxyproline excretion in ovariectomized rats treated with the test compound (µmol/mmol). • P3 : The amount of urinary hydroxyproline in sham-operated rats treated with 0.3% Tween (µmol/mmol).

The test system of experiment [2] is ovariectomized rats. The experiment is described as follows: Inhibitory effect on decrease of bone density by ovariectomy (tibia, DEXA). The experiment is classed as in vivo, SD strain rats. The conditions noted are these: 10 mg/kg orally once a day for 6 weeks. The method, then:
Test Example 3: Inhibitory effect on decrease of bone density by ovariectomy
The experiment was carried out using 13-weeks-old female SD strain rats (Japan Crea Co. Ltd.) The animals were subjected to sham operation or bilateral ovariectomy under Nembutal anesthesia. The test compound (10 mg/kg) was dissolved or suspended in 0.5% methylcellulose (Shin-Etsu Chemical Co., Ltd.) and administered orally once a day from the first day after the operation for 6 weeks. For the sham-operated group and the ovariectomized control group, 0.5% methylcellulose (Shin-Etsu Chemical Co., Ltd.) was administered orally. The rat was slaughtered by femoral artery bleeding, the right hindlimb was ablated, and then the bone mineral content (BMC) and bone density (BD) of the tibia was measured according to a DEXA (DXA) method [Japan Clinic, 52 (9), 2329-2334 (1994)] using bone mineral measuring apparatus DCS-600 (Aloka Co., Ltd.). Tibial BMC and BD in the sham-operated, ovariectomized control, and test compound-treated ovariectomized group are shown in Table 4.

Counter-ions that a name gives are not always drawn.

With `CN(C)CCn1c(C(=O)N2CCN(c3ccccc3)CC2)c(C(c2ccccc2)c2ccccc2)c2ccccc21` [Compound 14, 1-(2-Dimethylaminoethyl)-3-(diphenylmethyl)-2-(4-phenylpiperazinylcarbonyl)indole], in the experiment with PTH enhanced bone, the IC50 (usually the concentration at which inhibition is half-maximal) was determined as 10.9 µM.
`CN(C)CCn1c(C(=O)NCCCn2ccnc2)c(C(c2ccccc2)c2ccccc2)c2ccccc21` [Compound 22, N-[3-(1-Imidazolyl)propyl]-1-(2-dimethylaminoethyl)-3-(diphenylmethyl)indole-2-carboxamide]: the IC50 in the experiment with PTH enhanced bone turned out to be 13.7 µM. Also, the inhibition in vivo at 10 mg/kg in the experiment with ovariectomized rats [1] was determined as 87%.
Consider `CN(C)CCn1c(C(=O)NC2CC2)c(C(c2ccccc2)c2ccccc2)c2ccccc21` [Compound 51, N-Cyclopropyl-1-(2-dimethylaminoethyl)-3-(diphenylmethyl)indole-2-carboxamide hydrochloride], for which the inhibition in vivo at 10 mg/kg in the experiment with ovariectomized rats [1] was 70%.
As for `CCCc1ccc(NC(=O)c2c(C(c3ccccc3)c3ccc(O)cc3)c3ccccc3n2CCN(C)C)cc1` (centres unmarked) [Compound 120, N-(4-Propylphenyl)-1-(2-dimethylaminoethyl)-3-(4-hydroxybenzhydryl)indole-2-carboxamide hydrochloride], the concentration for half-maximal inhibition (IC50) in the experiment on PTH enhanced bone is 10.5 µM.
As to `CN(C)CCn1c(C(=O)NCCCN2CCOCC2)c(C(c2ccccc2)c2ccccc2)c2ccccc21` [Compound 20, N-(3-Morpholinopropyl)-1-(2-dimethylaminoethyl)-3-(diphenylmethyl)indole-2-carboxamide], in the experiment on PTH enhanced bone, the IC50 is 3.7 µM. Also, in the experiment on ovariectomized rats [1], the inhibition in vivo at 10 mg/kg was found to be 100%.
For `O=C(c1c(C(c2ccccc2)c2ccccc2)c2ccccc2n1CCN1CCCC1)N1CCN(c2ccccc2Cl)CC1` [Compound 4, 2-[4-(2-Chlorophenyl)piperazinylcarbonyl]-3-(diphenylmethyl)-1-(2-pyrrolidinylethyl)indole], the inhibition in vivo at 10 mg/kg in the experiment on ovariectomized rats [1] came out at 43%.
On the same count and under the same terms, in the case of `CCOC(=O)c1c(C(c2ccc(C)cc2)c2ccc(C)cc2)c2ccccc2n1CCN1CCCCC1` [Compound 98, Ethyl 3-[bis(4-methylphenyl)methyl]-1-(2-piperidinoethyl)indole-2-carboxylate] it was 47%.
Consider `CNC(=O)c1c(C(c2ccccc2)c2ccccc2)c2ccccc2n1CCN(C)C` [Compound 56, N-Methyl-1-(2-dimethylaminoethyl)-3-(diphenylmethyl)indole-2-carboxamide hydrochloride], for which the 50% inhibitory concentration (IC50) in the experiment on PTH enhanced bone came out at 13 µM. Besides, the inhibition in vivo at 10 mg/kg with ovariectomized rats [1] came out at 57%.
The corresponding values for `CC(C)NC(=O)c1c(C(c2ccccc2)c2ccccc2)c2ccccc2n1CCN(C)C` [Compound 8, N-Isopropyl-1-(2-dimethylaminoethyl)-3-(diphenylmethyl)indole-2-carboxamide] are 14.3 µM and 100%.
As for `CN(C)CCn1c(C(=O)N2CCOCC2)c(C(c2ccccc2)c2ccccc2)c2ccccc21` [Compound 13, 1-(2-Dimethylaminoethyl)-3-(diphenylmethyl)-2-(morpholinocarbonyl)indole], the IC50 with PTH enhanced bone stood at 11.2 µM.
`CCOC(=O)c1c(C(c2ccccc2)c2ccccc2)c2ccccc2n1CCCN(C)C` [Compound 64, Ethyl 1-(3-dimethylaminopropyl)-3-(diphenylmethyl)indole-2-carboxylate]: the IC50 with PTH enhanced bone is 16.7 µM. Also, in the experiment on ovariectomized rats [1], the inhibition in vivo at 10 mg/kg is 77%.
On the same counts, the results for `CCCc1ccc(NC(=O)c2c(C(c3ccc(Cl)cc3)c3ccc(Cl)cc3)c3ccccc3n2CCN(C)C)cc1` [Compound 97, N-(4-propylphenyl)-3-[bis(4-chlorophenyl)methyl]-1-(2-dimethylaminoethyl)indole-2-carboxamide hydrochloride] are 14.3 µM and 40%.
As for `CN(C)CCn1c(C(=O)N2CCN(Cc3ccccc3)CC2)c(C(c2ccccc2)c2ccccc2)c2ccccc21` [Compound 15, 2-(4-Benzylpiperazinylcarbonyl)-1-(2-dimethylaminoethyl)-3-(diphenylmethyl)indole], the IC50 in the experiment with PTH enhanced bone was 14.3 µM. Besides, the inhibition in vivo at 10 mg/kg with ovariectomized rats [1] was 100%.
Turning to `CN(C)CCn1c(C(=O)O)c(C(c2ccccc2)c2ccccc2)c2ccccc21` [Compound 6, 1-(2-Dimethylaminoethyl)-3-(diphenylmethyl)indole-2-carboxylic acid], the inhibition in vivo at 10 mg/kg in the experiment with ovariectomized rats [1] came to 100%.
On to `CC(C)NC(=O)c1c(C(c2ccccc2)c2ccc(O)cc2)c2ccccc2n1CCN(C)C` (centres unmarked) [Compound 119, N-Isopropyl-1-(2-dimethylaminoethyl)-3-(4-hydroxybenzhydryl)indole-2-carboxamide hydrochloride], for which the IC50 in the experiment on PTH enhanced bone was 10.8 µM.
Regarding `O=C(NCCN1CCCCC1)c1c(C(c2ccccc2)c2ccccc2)c2ccccc2n1CCN1CCCC1` [Compound 62, N-(2-Piperidinoethyl)-3-(diphenylmethyl)-1-(2-pyrrolidinylethyl)indole-2-carboxamide 2 hydrochloride], the IC50 in the experiment with PTH enhanced bone is 18.1 µM. In addition, the inhibition in vivo at 10 mg/kg in the experiment with ovariectomized rats [1] turned out to be 53%.
`CN(C)CCn1c(C(=O)NCCCN2CCCC2=O)c(C(c2ccccc2)c2ccccc2)c2ccccc21` [Compound 21, N-[3-(2-Oxopyrrolidinyl)propyl]-1-(2-dimethylaminoethyl)-3-(diphenylmethyl)indole-2-carboxamide]: in the experiment on PTH enhanced bone, the IC50 was determined as 14.3 µM. Further, the inhibition in vivo at 10 mg/kg in the experiment on ovariectomized rats [1] was determined as 100%. In the experiment with ovariectomized rats [2] (tibia bone density), the “BD (mg/cm^2)” value was 126.95 ± 1.78 mg/cm^2. In addition, the “BMC” value in the experiment on ovariectomized rats [2] (tibia bone mineral content) worked out at 268.81 ± 7.38 mg.
`CN(C)CCn1c(C(=O)N2CCCCC2)c(C(c2ccccc2)c2ccccc2)c2ccccc21` [Compound 10, 1-(2-Dimethylaminoethyl)-3-(diphenylmethyl)-2-(piperidinocarbonyl)indole]: in the experiment on PTH enhanced bone, the concentration for half-maximal inhibition (IC50) turned out to be 9.1 µM.
Regarding `CN(C)CCn1c(C(=O)NCCCN2CCOCC2)c(C(c2ccccc2)c2ccc(O)cc2)c2ccccc21` (centres unmarked) [Compound 121, N-(3-Morpholinopropyl)-1-(2-dimethylaminoethyl)-3-(4-hydroxybenzhydryl)indole-2-carboxamide 2 hydrochloride], in the experiment on ovariectomized rats [1], the inhibition in vivo at 10 mg/kg came out at 59%.
`CN(C)CCn1c(C(=O)NC2CCCCCC2)c(C(c2ccccc2)c2ccccc2)c2ccccc21` [Compound 11, N-Cycloheptyl-1-(2-dimethylaminoethyl)-3-(diphenylmethyl)indole-2-carboxamide]: the 50% inhibitory concentration (IC50) in the experiment on PTH enhanced bone came to 17.5 µM. In the experiment on ovariectomized rats [1], the inhibition in vivo at 10 mg/kg was determined as 100%.
